Data set [1] deals with HepG2 cells. The data set is described as follows: Dose-dependent gene-transcriptional activity (Affymetrix GeneChip U133A) in HepG2 cells treated for 7 days. The class given is cell-based. The conditions noted are these: for Difference in EC50 or IC50 values between RRR-α-T and all-rac-α-T / Number of genes dose-dependently regulated: HepG2; for EC50: HepG2, 104 induced genes, read-out: Transcriptional induction potency EC50, Mean ± SD; for EC50 / IC50: 7 days, 0-300 μM α-tocopheryl acetate in the media; for IC50: HepG2, 111 repressed genes, read-out: Transcriptional repression potency IC50, Mean ± SD; for Number of genes dose-dependently regulated: of the 14500 genes on the Affymetrix GeneChip U133A. As for the experimental part:
(§1) HepG2 cells (ATCC HB-8065) were cultured in 6 cm dishes in DMEM medium (GIBCO-Invitrogen, Switzerland) with 10% NU serum™ (Becton Dickinson, Switzerland) containing 1% Pen/Strep and undetectable amounts of vitamin E (detection limit 20 nM). Vitamin E compounds were applied as the acetate derivatives: RRR-α-tocopheryl acetate (Sigma and DSM Nutritional Products Ltd., Switzerland; 99-99.5 weight %, determined by gas chromatography) and all-rac-α-tocopheryl acetate (DSM Nutritional Products Ltd, Kaiseraugst, Switzerland; 98.0-99.5 weight %, determined by gas chromatography) were dissolved in 100% ethanol to prepare stock solutions. Treatment media were prepared by the addition of RRR-α-tocopheryl acetate (RRR-α-Tac) or all-rac-α-tocopheryl acetate (all-rac-α-Tac) to the basic medium at the following final concentrations: 0 (ethanol only, 1% final concentration), 10, 30, 80 and 300 μM. Treatment media were aliquoted and stored at −20° C. The vitamin E acetate treatment was performed for 7 days during the logarithmic growth phase of the cells. All treatment media were exchanged for fresh media every 24 hours. This treatment strategy has been chosen in the attempt to keep vitamin E acetate concentrations stable over time and to reach steady state intracellular vitamin E concentrations at 7 days of supplementation. All treatments were performed in quadruplicate dishes.
Cells were washed three times with PBS and lyzed with RTL buffer (Qiagen, Basel, Switzerland). Total RNA isolation was performed using RNeasy mini spin columns (Qiagen) and DNase digested on the columns (RNase-Free DNase Set, Qiagen) according to the manufacturer's description. cRNA preparation and Affymetrix GeneChip (U133A) hybridization were performed as described.
Data processing was carried out using the RACE-A analysis tool (Roche Bioinformatics, Basel, Switzerland) as described. Briefly, the arrays were normalized against the mean of the total sum of Average Difference (AvgDiff) values across all arrays used. Mean Average Difference values (MeanAvgDiff) were calculated as the means of one experiment performed in quadruplicate. Possible outliers were identified using the procedure of Nalimov with a 95% confidence interval. Subsequently, mean change factors (Chgf) for each individual gene were calculated among the different treatment groups and control using pair wise comparisons, and statistical significance was assessed by Student's t-test with prior testing for the normal distribution of the data. Applicant selected for those genes showing a dose-dependent regulation by vitamin E, i.e. maximal MeanAvgDiff>10 combined with a significant (p<0.05) differential Chgf between the vitamin E supplemented groups and the control group. The analysis of the experimental data obtained upon stimulation/treatment of the cells with RRR-α-Tac or all-rac-α-Tac was performed independently from each other.
EC50 and IC50 values, respectively, were determined by applying the standard four parameter model [y=a+(b−a)/(1+(x/c)̂d)] using the XL-Fit Software 3.0 (IDBS Inc. Emeryville, USA), where y is the normalized gene expression, x is the concentration of RRR-α-tocopherol or all-rac-α-tocopherol in the media and c corresponds to the EC50 and IC50 values, respectively. The potency-ratios were calculated as following: EC50RRR-α-T/EC50all-rac-α-T and IC50RRR-α-T/IC50all-rac-α-T.

In data set [2] the test system is HepG2 cells. Put plainly: Cellular α-tocopherol concentrations in HepG2 cells (HPLC). The class given is cell-based. To be noted: for Difference between the intracellular concentrations of RRR-α-T and all-rac-α-T: HepG2, 7 days; for Amount of free cellular vitamin E compared to control cells: HepG2, 7 days, 10, 30, 80 or 300 μM acetate in the media. The method, then:
as §1
Adherent HepG2 cells were trypsinized, collected and washed three times with PBS containing 1% bovine serum albumin. Cells were saponified in a methanolic potassium hydroxide solution. The solution was diluted with 35% ethanol and extracted with hexane/toluene. α-Tocopheryl acetate and hydrolyzed α-tocopherols were quantified by isocratic HPLC analysis.

The conditions of data set [3]: animal studies; cited from earlier work.

With `Cc1c(C)c2c(c(C)c1O)CCC(C)(CCCC(C)CCCC(C)CCCC(C)C)O2` (racemic) [all-rac-α-T, all-rac-α-tocopherol], in the data set on HepG2 cells [1], the “Difference in EC50 or IC50 values between RRR-α-T and all-rac-α-T” value was “no statistically significant differences”; the EC50 (in general, the concentration at which the effect is half-maximal) stood at 14 ± 9.1 µM; the IC50 (as a rule, the concentration at which inhibition is half-maximal) came to 6 ± 4.5 µM; the “Number of genes dose-dependently regulated” value came out at 215. Also, in the data set with HepG2 cells [2], the “Difference between the intracellular concentrations of RRR-α-T and all-rac-α-T” value is “no significant difference”; the “Amount of free cellular vitamin E compared to control cells” value is “significantly increased”.

For `Cc1c(C)c2c(c(C)c1O)CC[C@@](C)(CCC[C@H](C)CCC[C@H](C)CCCC(C)C)O2` [RRR-α-T, (2R,4′R,8′R)-α-tocopherol], in the data set on HepG2 cells [1], the “Difference in EC50 or IC50 values between RRR-α-T and all-rac-α-T” value is reported as “no statistically significant differences”; the EC50 came out at 18 ± 10.7 µM; the IC50 came out at 6.4 ± 6.8 µM; the “Number of genes dose-dependently regulated” value came out at 215. Also, the Potency ratio EC50RRR-α-T/EC50all-rac-α-T, Mean ± SD with HepG2 cells [1] (HepG2, 104 genes) was 0.9 ± 0.6. Besides, the Potency ratio IC50RRR-α-T/IC50all-rac-α-T, Mean ± SD in the data set on HepG2 cells [1] (HepG2, 111 genes) is 1.2 ± 0.7. Moreover, in the data set with HepG2 cells [1] (HepG2, 215 genes), the “Overall biopotency factor (mean of all 215 potency ratios RRR-α-T to all-rac-α-T)” value was 1.05 and the Potency ratio Overall, Mean ± SD came out at 1.05 ± 0.7. Further, in the data set on HepG2 cells [2], the “Difference between the intracellular concentrations of RRR-α-T and all-rac-α-T” value is “no significant difference”; the “Amount of free cellular vitamin E compared to control cells” value is “significantly increased”. In addition, the “Biological potency relative to all-rac-α-T (times)” value in data set [3] is 1.36.

The record behind these values is patent publication US20080194417A1, “Method for Measuring and Comparing the Activity of Biologically Active Compounds” (priority 2005, published 2008).
